{"source": "patent US12370232B2", "about": "“Use of polyphenol containing sugar cane extracts for preventing, improving or treating a skin condition” (priority 2017, dated 2025)", "key": {"[1]": {"test_system": "tyrosinase", "test": "Tyrosinase inhibition assay", "assay_type": "biochemical", "experimental": "A tyrosinase inhibition assay was performed to determine the tyrosinase inhibition potential of an extract derived from sugar cane of the present disclosure. […]\nTo measure tyrosinase inhibition potential of an extract derived from sugar cane of the present disclosure, tyrosinase was added to a mixture of a test sample solution containing an extract derived from sugar cane, L-DOPA, and phosphate buffer (pH 6.8), which was then incubated at 37° C. for 5 hours. Tyrosinase activity was determined through the amount of dopachrome production in the mixture, which was measured by optical density at 450 nm. Dopachrome is a cyclization product of L-DOPA, an intermediate in the biosynthesis of melanin."}, "[2]": {"test_system": "MMP-1", "test": "MMP-1 inhibition assay in UV irradiated human skin cells (zymography)", "assay_type": "cell-based", "experimental": "The UV protection function of an extract derived from sugar cane of the present disclosure on skin using human skin cells was investigated. MMP-1, one of the key matrix metalloproteinases (MMPs) that is viewed as an indicator for tissue integrity breakdown and wrinkle formation, was used as a biomarker for skin damage. MMP-1 inhibitors have been related to skin aging prevention and therapy. An MMP-1 inhibition assay was performed to determine the MMP-1 inhibition potential of an extract derived from sugar cane of the present disclosure. […] In order to determine the UV protection ability of a test sample of an extract derived from sugar cane of the present disclosure, human skin cells were treated with (and without) the test sample followed by UV irradiation. The treated cells were then disrupted by subjection to several freeze-thaw cycles, and the proteins were obtained by centrifugation. Using the collected lysate, zymography was used to determine the enzymatic activity of secreted MMP-1. In the zymography, the proteins were separated by electrophoresis under denaturing (sodium dodecyl sulfate, SDS), nonreducing conditions. The separation occurred in a polyacrylamide gel containing a collagen substrate that was co-polymerized with the acrylamide. […] After electrophoresis, the gel was washed and subsequently incubated in an appropriate activation buffer. During this incubation, the concentrated, renatured MMPs in the gel digested the collagen substrate. After incubation, the gel was stained with Coomassie® Blue, and the MMPs were detected as clear bands against a blue background of undegraded substrate. The clear bands in the gel was quantified by densitometry. Avobenzone, a known MMP-1 inhibitor, was used as an assay control."}}, "data": [{"smiles": "O=c1cc(CO)occ1O", "note": "[Kojic Acid, Kojic acid]", "values": [{"measurement": "Concentration inducing the maximum inhibition", "setting": "[1]", "value": 1000, "unit": "µM"}, {"measurement": "Inhibition (%) Result", "setting": "[1]; Conc. 3.91 uM", "value": "−11.66", "unit": "%"}, {"measurement": "Inhibition (%) Result", "setting": "[1]; Conc. 7.81 uM", "value": "−9.33", "unit": "%"}, {"measurement": "Inhibition (%) Result", "setting": "[1]; Conc. 15.63 uM", "value": "−4.66", "unit": "%"}, {"measurement": "Inhibition (%) Result", "setting": "[1]; Conc. 31.25 uM", "value": 1.23, "unit": "%"}, {"measurement": "Inhibition (%) Result", "setting": "[1]; Conc. 62.50 uM", "value": 12.35, "unit": "%"}, {"measurement": "Inhibition (%) Result", "setting": "[1]; Conc. 125.00 uM", "value": 30.45, "unit": "%"}, {"measurement": "Inhibition (%) Result", "setting": "[1]; Conc. 250.00 uM", "value": 52.40, "unit": "%"}, {"measurement": "Inhibition (%) Result", "setting": "[1]; Conc. 500.00 uM", "value": 75.45, "unit": "%"}, {"measurement": "Inhibition (%) Result", "setting": "[1]; Conc. 1000.00 uM", "value": 90.12, "unit": "%"}, {"measurement": "Maximum inhibition achieved", "setting": "[1]; at 1000 μM", "value": 90.12, "unit": "%"}]}, {"smiles": "COc1ccc(C(=O)CC(=O)c2ccc(C(C)(C)C)cc2)cc1", "note": "[avobenzone, Avobenzone]", "values": [{"measurement": "Concentration inducing the maximum inhibition", "setting": "[2]", "value": 10, "unit": "%"}, {"measurement": "MMP-1 inhibition (%) Average", "setting": "[2]; Conc 0.31 %", "value": 5.0, "unit": "%"}, {"measurement": "MMP-1 inhibition (%) Replicate 2", "setting": "[2]; Conc 0.31 %", "value": 5.0, "unit": "%"}, {"measurement": "MMP-1 inhibition (%) Average", "setting": "[2]; Conc 0.63 %", "value": 44.1, "unit": "%"}, {"measurement": "MMP-1 inhibition (%) Replicate 1", "setting": "[2]; Conc 0.63 %", "value": 22.51, "unit": "%"}, {"measurement": "MMP-1 inhibition (%) Replicate 2", "setting": "[2]; Conc 0.63 %", "value": 65.72, "unit": "%"}, {"measurement": "MMP-1 inhibition (%) Average", "setting": "[2]; Conc 1.25 %", "value": 48.5, "unit": "%"}, {"measurement": "MMP-1 inhibition (%) Replicate 1", "setting": "[2]; Conc 1.25 %", "value": 56.96, "unit": "%"}, {"measurement": "MMP-1 inhibition (%) Replicate 2", "setting": "[2]; Conc 1.25 %", "value": 39.99, "unit": "%"}, {"measurement": "MMP-1 inhibition (%) Average", "setting": "[2]; Conc 2.50 %", "value": 79.8, "unit": "%"}, {"measurement": "MMP-1 inhibition (%) Replicate 1", "setting": "[2]; Conc 2.50 %", "value": 77.44, "unit": "%"}, {"measurement": "MMP-1 inhibition (%) Replicate 2", "setting": "[2]; Conc 2.50 %", "value": 82.22, "unit": "%"}, {"measurement": "MMP-1 inhibition (%) Average", "setting": "[2]; Conc 5.00 %", "value": 90.7, "unit": "%"}, {"measurement": "MMP-1 inhibition (%) Replicate 1", "setting": "[2]; Conc 5.00 %", "value": 85.34, "unit": "%"}, {"measurement": "MMP-1 inhibition (%) Replicate 2", "setting": "[2]; Conc 5.00 %", "value": 96.03, "unit": "%"}, {"measurement": "MMP-1 inhibition (%) Average", "setting": "[2]; Conc 10.00 %", "value": 97.5, "unit": "%"}, {"measurement": "MMP-1 inhibition (%) Replicate 1", "setting": "[2]; Conc 10.00 %", "value": 95.44, "unit": "%"}, {"measurement": "MMP-1 inhibition (%) Replicate 2", "setting": "[2]; Conc 10.00 %", "value": 99.52, "unit": "%"}, {"measurement": "Maximum inhibition achieved", "setting": "[2]; at 10%", "value": 97.50, "unit": "%"}, {"measurement": "EC50", "setting": "[2]; effective concentration at 50% of maximal inhibition", "value": 1.22, "unit": "%"}]}]}
